In patent US20240335401A1, “SUBSTITUTED PHENETHYLAMINE FOR TREATING INFLAMMATION AND PSYCHOLOGICAL DISORDERS” (SYNAPTIVE THERAPEUTICS LLC, priority 2022, published 2024):

Legend:
[1] = taken recreationally; cited from earlier work
[2] = system: mice; assay: Signs of hallucination in mice at increasing doses; format: in vivo; conditions: oral, FIG. 3
Experimental: FIG. 3 is a plot of % mice showing sign of hallucination at increasing doses of 2C-B.
(§1) Mice were administered increasing amounts of 2C-B to identify sub-hallucinogenic doses (FIG. 3). It was determined that a dose of 0.025 mg/kg can be orally administered to mice without showing any signs of hallucination. Mice were then administered 2C-B for increasing amounts of time, then placed on the EPM apparatus for 5 minutes and time spent on the open arms obtained. As it can be seen in FIG. 4, the sub-hallucinogenic dose of 2C-B was capable of reducing anxiety in mice.

[3] = system: mice; assay: EPM apparatus, time spent on the open arms (anxiety); format: in vivo; conditions: sub-hallucinogenic dose, EPM for 5 minutes, compared to saline, FIG. 4
Experimental: FIG. 4 is a graph showing the time spent on the open arm by mice treated with 2C-B for increasing amounts of time.
as §1

[4] = system: mice injected with a toxic level of LPS; assay: Lethal septic event after a toxic level of LPS in mice; format: in vivo; conditions: FIG. 2
Experimental: FIG. 2 is a plot showing % mice that died after injection of a toxic level of LPS when administered 2C-H or vehicle control.
(§2) In another experiment, mice were also injected with a toxic level of LPS to initiate a lethal septic event, which was attenuated by administration of 2C-H (FIG. 2).

[5] = system: TNFa in circulation; assay: LPS-induced inflammatory response in mice, TNFa in circulation; format: in vivo; conditions: mice injected with LPS; subcutaneous administration; FIG. 1
Experimental: FIG. 1 is a graph showing the level of TNF-α in serum of mice injected with LPS to induce inflammation and administered 2C-H or control vehicle.
as §2

Structure (SMILES)	threshold unit dose that can cause psychedelic activity [1]	dose that can be orally administered without showing any signs of hallucination [2]	time spent on the open arm [3]	lethal septic event (% mice that died) [4]	inflammatory response (measured by TNFa in circulation) [5]
COc1cc(CCN)c(OC)cc1I [2C-I, 2-(4-lodo-2,5-dimethoxyphenyl)ethan-1-amine]	about 2 mg				
CCc1cc(OC)c(CCN)cc1OC [2C-E, 4-Ethyl-2,5-dimethoxyphenethylamine]	about 2 mg				
COc1cc(CCN)c(OC)cc1Br [2C-B, 4-Bromo-2,5-dimethoxyphenethylamine]	about 5 mg	0.025 mg/kg	increased time spent on the open arm compared to saline		
COc1ccc(OC)c(CCN)c1 [2C-H]				attenuated	quickly quelled
